Experimental data reported in ChEMBL document CHEMBL3351515, “α-Hexylcinnamaldehyde inhibits the genotoxicity of environmental pollutants in the bacterial reverse mutation assay” (2014).

Tests used:
Salmonella typhimurium [1] = test: Antimutagenic activity against 2-aminoanthracene-induced revertant colonies in Salmonella typhimurium TA100 assessed as number of revertant colonies measured pretreatment at 9 uM (reference value: 481.3 +/- 5.3) in presence of mammalian S9 fraction; format: functional, Salmonella enterica subsp. enterica serovar Typhimurium
Salmonella typhimurium [2] = test: Antimutagenic activity against sodium azide-induced revertant colonies in Salmonella typhimurium TA100 assessed as number of revertant colonies measured post-treatment at 9 uM (reference value: 1909 +/- 29.7) in absence of mammalian S9 fraction; format: functional, Salmonella enterica subsp. enterica serovar Typhimurium
Salmonella typhimurium [3] = test: Antimutagenic activity against sodium azide-induced revertant colonies in Salmonella typhimurium TA100 assessed as number of revertant colonies measured post-treatment at 18 uM (reference value: 1909 +/- 29.7) in absence of mammalian S9 fraction; format: functional, Salmonella enterica subsp. enterica serovar Typhimurium
Salmonella typhimurium [4] = test: Antimutagenic activity against sodium azide-induced revertant colonies in Salmonella typhimurium TA100 assessed as number of revertant colonies measured post-treatment at 180 uM (reference value: 1909 +/- 29.7) in absence of mammalian S9 fraction; format: functional, Salmonella enterica subsp. enterica serovar Typhimurium
Salmonella typhimurium [5] = test: Antimutagenic activity against sodium azide-induced revertant colonies in Salmonella typhimurium TA100 assessed as number of revertant colonies measured post-treatment at 900 uM (reference value: 1909 +/- 29.7) in absence of mammalian S9 fraction; format: functional, Salmonella enterica subsp. enterica serovar Typhimurium
Salmonella typhimurium [6] = test: Antimutagenic activity against 2-aminoanthracene-induced revertant colonies in Salmonella typhimurium TA100 assessed as number of revertant colonies measured post-treatment at 9 uM (reference value: 642.7 +/- 2.7) in presence of mammalian S9 fraction; format: functional, Salmonella enterica subsp. enterica serovar Typhimurium
Escherichia coli [7] = test: Antimutagenic activity against 2-aminoanthracene-induced revertant colonies in Escherichia coli WP2uvrA assessed as number of revertant colonies measured pretreatment at 90 uM (reference value: 178.7 +/- 11.8) in presence of mammalian S9 fraction; format: functional
Escherichia coli [8] = test: Antimutagenic activity against methyl methansulfonate-induced revertant colonies in Escherichia coli WP2uvrA assessed as number of revertant colonies measured cotreatment at 9 uM (reference value: 485.3 +/- 17.5) in absence of mammalian S9 fraction; format: functional
Escherichia coli [9] = test: Antimutagenic activity against methyl methansulfonate-induced revertant colonies in Escherichia coli WP2uvrA assessed as number of revertant colonies measured cotreatment at 18 uM (reference value: 485.3 +/- 17.5) in absence of mammalian S9 fraction; format: functional
Escherichia coli [10] = test: Antimutagenic activity against 2-aminoanthracene-induced revertant colonies in Escherichia coli WP2uvrA assessed as number of revertant colonies measured cotreatment at 18 uM (reference value: 366 +/- 10.3) in presence of mammalian S9 fraction; format: functional
Escherichia coli [11] = test: Antimutagenic activity against 2-aminoanthracene-induced revertant colonies in Escherichia coli WP2uvrA assessed as number of revertant colonies measured cotreatment at 90 uM (reference value: 366 +/- 10.3) in presence of mammalian S9 fraction; format: functional
Escherichia coli [12] = test: Antimutagenic activity against 2-aminoanthracene-induced revertant colonies in Escherichia coli WP2uvrA assessed as number of revertant colonies measured cotreatment at 180 uM (reference value: 366 +/- 10.3) in presence of mammalian S9 fraction; format: functional
Escherichia coli [13] = test: Antimutagenic activity against 2-aminoanthracene-induced revertant colonies in Escherichia coli WP2uvrA assessed as number of revertant colonies measured post-treatment at 18 uM (reference value: 308 +/- 4) in presence of mammalian S9 fraction; format: functional
Escherichia coli [14] = test: Antimutagenic activity against 2-aminoanthracene-induced revertant colonies in Escherichia coli WP2uvrA assessed as number of revertant colonies measured post-treatment at 180 uM (reference value: 308 +/- 4) in presence of mammalian S9 fraction; format: functional
Salmonella typhimurium [15] = test: Antimutagenic activity against 2-nitrofluorene-induced revertant colonies in Salmonella typhimurium TA98 assessed as inhibition of mutagenicity measured at 900 uM; format: functional, Salmonella enterica subsp. enterica serovar Typhimurium; details: Salmonella enterica
Salmonella typhimurium [16] = test: Antimutagenic activity against 1-nitropyrene-induced revertant colonies in Salmonella typhimurium TA98 assessed as inhibition of mutagenicity measured at 9 to 18 uM; format: functional, Salmonella enterica subsp. enterica serovar Typhimurium
Salmonella typhimurium [17] = test: Antimutagenic activity against 1-nitropyrene-induced revertant colonies in Salmonella typhimurium TA98 assessed as inhibition of mutagenicity measured at 900 uM; format: functional, Salmonella enterica subsp. enterica serovar Typhimurium; details: Salmonella enterica
Salmonella typhimurium [18] = test: Antimutagenic activity against 4-nitroquinoline N-oxide-induced revertant colonies in Salmonella typhimurium TA98 assessed as inhibition of mutagenicity measured at 9 to 18 uM; format: functional, Salmonella enterica subsp. enterica serovar Typhimurium

Structure (SMILES): CCCCCC/C(C=O)=C\c1ccccc1
- Activity (Salmonella typhimurium [1]): 465.3
- Activity (Salmonella typhimurium [2]): 1888
- Activity (Salmonella typhimurium [3]): 1867
- Activity (Salmonella typhimurium [4]): 1771
- Activity (Salmonella typhimurium [5]): 1671
- Activity (Salmonella typhimurium [6]): 637.3
- Activity (Escherichia coli [7]): 152.3
- Activity (Escherichia coli [8]): 484
- Activity (Escherichia coli [9]): 485.3
- Activity (Escherichia coli [10]): 330.7
- Activity (Escherichia coli [11]): 334.3
- Activity (Escherichia coli [12]): 318.7
- Activity (Escherichia coli [13]): 292
- Activity (Escherichia coli [14]): 302.7
- inhibition at 900 µM (Salmonella typhimurium [15]): > 40%
- inhibition (INH) (Salmonella typhimurium [16]): <25%
- inhibition at 900 µM (Salmonella typhimurium [17]): > 40%
- inhibition (INH) (Salmonella typhimurium [18]): <25%
